Data from patent EP1286591B1, “TREATING SMOOTH MUSCLE HYP[…] (R)-OXYBUTYNIN AND (R)- DESETHYLOXYBUTYNIN” (Watson Pharmaceuticals, Inc., priority 2000, dated 2001).

Key:
[1] = Therapeutic effects compared with the racemates and optical antipodes; conditions: compared to their corresponding racemates and their optical antipodes
[2] = Tolerability in laboratory animals (acute toxicity in mice); assay type: in vivo; conditions: compared with the S(+)-isomer
Experimental: The experiments are carried out on conscious albino mice that are administered escalating doses of the test compounds intravenously or orally.

[3] = Cardiovascular depressing activity (cardiac side effect studies); assay type: in vivo, guinea pigs; conditions: unwanted side effect of racemic oxybutynin
Experimental: Male guinea pigs (450-600 g) are anesthetized with freshly prepared dialurethane sodium. The jugular vein is catheterized for iv administration of test drugs and the trachea is exposed and cannulated. Subdermal electrodes are positioned for Lead II electrocardiogram recording, monitored on a Grass Polygraph recorder, set at a paper speed of 50 mm/sec. The animals are allowed to stabilize for 30 minute after completion of surgery, and three baseline EKG recordings are then made at 10-minute intervals. The animals are then given a dose of the test compound or vehicle as an intravenous infusion over 30 min. EKG recordings are used to determine QT intervals and heart rates. To compensate for variations in heart rates, QTc intervals are calculated from QT- and RR-intervals as known to those skilled in the art. Prolongation of QTc is indicative of a prolonged action potential, caused by an inhibition of the delayed rectifier potassium channel. Prolongation of QTc is the known cause of Torsades de Pointes ventricular fibrillation by drugs such as terodiline, terfenadine and astemizole (now withdrawn from the market).

SMILES | therapeutic effects [1] | tolerated when given to laboratory animals [2] | cardiovascular depressing activity [3]
CCNCC#CCOC(=O)[C@](O)(c1ccccc1)C1CCCCC1 [R(-)-isomer of desethyloxybutynin, R(-)-4-ethylamino-2-butynyl cyclohexylphenyl-glycolate] | superior therapeutic effects | – | –
CCN(CC)CC#CCOC(=O)[C@](O)(c1ccccc1)C1CCCCC1 [R(-)-isomer of oxybutynin, R(-)-4-diethylamino-2-butynyl_-cyclohexyl-_-hydroxy-benzeneacetate] | superior therapeutic effects | much better tolerated than the S(+)-isomer | –
CCNCC#CCOC(=O)[C@@](O)(c1ccccc1)C1CCCCC1 [S(+)-isomer of desethyloxybutynin] | – | – | serious cardiovascular depressing activity
CCN(CC)CC#CCOC(=O)[C@@](O)(c1ccccc1)C1CCCCC1 [S(+)-isomer of oxybutynin] | – | – | serious cardiovascular depressing activity
